Experimental data from patent US12048678B2, “Compounds for treating myelin related disorders” (Case Western Reserve University, priority 2018, dated 2024).
Entries after “also recorded” stand apart in the source; their conditions may differ.

What was measured:
M1 muscarinic receptor = molecular target: T1, M1 muscarinic receptor (Homo sapiens, UniProt P11229); experiment: Muscarinic receptor antagonism assay (GeneBLAzer M1-NFAT-bla CHO-K1 cells); type: cell-based; settings: Compound 1 at 1 μM, TASIN-1 100 nM; concentration maximally effective for oligodendrocyte formation
T1 sequence (P11229 1-460): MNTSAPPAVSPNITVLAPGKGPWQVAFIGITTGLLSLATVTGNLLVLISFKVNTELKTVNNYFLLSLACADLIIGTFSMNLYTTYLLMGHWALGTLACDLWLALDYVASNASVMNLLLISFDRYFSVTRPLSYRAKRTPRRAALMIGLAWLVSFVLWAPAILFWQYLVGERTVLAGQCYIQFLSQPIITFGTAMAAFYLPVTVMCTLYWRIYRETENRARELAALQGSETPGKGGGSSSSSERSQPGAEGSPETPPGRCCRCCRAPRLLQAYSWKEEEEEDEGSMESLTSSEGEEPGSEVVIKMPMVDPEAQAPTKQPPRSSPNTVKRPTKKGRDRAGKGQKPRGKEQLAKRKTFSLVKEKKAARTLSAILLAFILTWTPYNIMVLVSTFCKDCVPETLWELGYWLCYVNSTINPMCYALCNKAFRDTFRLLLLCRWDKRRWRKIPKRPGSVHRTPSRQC
Procedure: GeneBLAzer M1-NFAT-bla CHO-K1 cells (or M3- or M5-NFAT-bla CHO-K1 cells)(ThermoFisher) were thawed into Assay Media (DMEM, 10% dialyzed FBS, 25 mM HEPES pH 7.3, 0.1 mM NEAA). 10,000 cells/well were added to a 384-well TC treated assay plate and incubated 16-24 h at 37° C. 4 μl of a 10× stock of antimuscarinic molecules was added to the plate and incubated 30 min. 4 μl of 10× control agonist Carbachol at the pre-determined EC80 concentration was added to wells containing antimuscarinic molecules. The plate was incubated 5 h and 8 μl of 1 μM Substrate+Solution D Loading Solution was added to each well and the plate was incubated 2 h at room temperature before reading on a fluorescence plate reader.

[1] = test system: oligodendrocyte progenitor cells (OPCs), OPC-5; experiment: Differentiation of OPCs to MBP+ oligodendrocytes (in vitro phenotypic screening, high-content imaging); type: cell-based, mouse
Procedure: To rigorously assess effects of small molecule and genetic treatments on OPCs, all treatments were assayed in two batches of epiblast stem cell-derived OPCs, and key results were confirmed using mouse primary OPCs. OPCs were generated from two separate EpiSC lines, EpiSC5 (giving rise to OPC-5 OPCs) and 12901 (giving rise to OPC-1 OPCs). EpiSC-derived OPCs were obtained using in vitro differentiation protocols and culture conditions described previously. To ensure uniformity throughout all in vitro screening experiments, EpiSC-derived OPCs were sorted to purity by fluorescence activated cell sorting at passage five with conjugated CD 140a-APC (eBioscience, 17-1401; 1:80) and NG2-AF488 (Millipore, AB5320A4; 1:100) antibodies. Sorted batches of OPCs were expanded and frozen down in aliquots. OPCs were thawed into growth conditions for one passage before use in further assays. Cultures were regularly tested and shown to be mycoplasma free.
EpiSC-derived OPCs were grown and expanded in poly-ornithine (PO) and laminin-coated flasks with growth medium (DMEM/F12 supplemented with N2-MAX (R&D Systems), B-27 (ThermoFisher), GlutaMax (Gibco), FGF2 ([…], R&D systems, 233-FB-025) and PDGF-AA ([…], R&D systems, 233-AA-050) before harvesting for plating. The cells were seeded onto poly-D-lysine 96-well CellCarrier or CellCarrierUltra plates (PerkinElmer) coated with laminin (Sigma, L2020; 15 μg/ml) using multi-channel pipet. For the experiment, 800,000 cells/mL stock in differentiation medium (DMEM/F12 supplemented with N2-MAX and B-27) was prepared and stored on ice for 2 h. Then, 40,000 cells were seeded per well in differentiation medium and allowed to attach for 30 min before addition of drug. For dose-response testing of all molecules except sterols, a 1000× compound stock in dimethyl sulphoxide (DMSO) was added to assay plates with 0.1 μL solid pin multi-blot replicators (V & P Scientific; VP 409), resulting in a final primary screening concentration of 1×. Cells were incubated under standard conditions (37° C., 5% CO2) for 3 days and fixed with 4% paraformaldehyde (PFA) in phosphate buffered saline (PBS) for 20 min. Fixed plates were washed with PBS (200 μL per well) twice, permeabilized with 0.1% Triton X-100 and blocked with 10% donkey serum (v/v) in PBS for 40 min. Then, cells were labelled with MBP antibodies (Abcam, ab7349; 1:200) for 16 h at 4° C. followed by detection with Alexa Fluor conjugated secondary antibodies (1:500) for 45 min. Nuclei were visualized by DAPI staining (Sigma; 1 μg/ml). During washing steps, PBS was added using a multi-channel pipet and aspiration was performed using Biotek EL406 washer dispenser (Biotek) equipped with a 96-well aspiration manifold.
Plates were imaged on the Operetta High Content Imaging and Analysis system (PerkinElmer) and a set of 6 fields captured from each well resulting in an average of 1200 cells being scored per well. Analysis (PerkinElmer Harmony and Columbus software) began by identifying intact nuclei stained by DAPI; that is, those traced nuclei that were larger than 300 μm2 in surface area. Each traced nucleus region was then expanded by 50% and cross-referenced with the […] (MBP) stain to identify oligodendrocyte nuclei, and from this the percentage of oligodendrocytes was calculated.

## c1ccc(-c2ccc(CN3CCCCCCC3)cc2)cc1 [Compound 1]
M1 muscarinic receptor
  effect in cell-based assay for the M1 muscarinic receptor: little affinity
[1]; Mus musculus, Oligodendrocyte progenitor cell, 0.03 μM, 72 h treatment, read-out: % enhancement of MBP+ oligodendrocyte generation at 0.03 μM concentration
  activation at 0.03 µM: 20 to 30%
[1]; Mus musculus, Oligodendrocyte progenitor cell, 0.1 μM, 72 h treatment, read-out: % enhancement of MBP+ oligodendrocyte generation at 0.1 μM concentration
  activation at 0.1 µM: > 40%
[1]; Mus musculus, Oligodendrocyte progenitor cell, 0.3 μM, 72 h treatment, read-out: % enhancement of MBP+ oligodendrocyte generation at 0.3 μM concentration
  activation at 0.3 µM: > 40%
[1]; Mus musculus, Oligodendrocyte progenitor cell, 1 μM, 72 h treatment, read-out: % enhancement of MBP+ oligodendrocyte generation at 1 μM concentration
  activation at 1 µM: > 40%
[1]; OPC-5, FIGS. 2a-2c
  enhancement of oligodendrocyte formation (in words): near maximal effects observed at 110 nM; also recorded: near maximal effects on oligodendrocyte formation at 110 nM
